This is an account of results in ChEMBL document CHEMBL1153355, “Synthesis and cytotoxic activities of novel phenacylimidazolium bromides” (Bioorg Med Chem Lett, 2009).

The structures appear in SMILES notation.

Common to all, as to type: functional, cell-based
In test [1] the test system is K562. Put plainly: Cytotoxicity against human K562 cells by MTT assay. (In general: Tetrazolium assays rely on reduction of a dye to a coloured formazan, in cell work by metabolically active cells.)
Test [2] deals with SK-OV-3. Put plainly: Cytotoxicity against human SKOV3 cells by MTT assay.
Test [3] concerns HEp-2. Put plainly: Cytotoxicity against human Hep2 cells by MTT assay.
Test [4] is described as follows: Cytotoxicity against human GLC15 cells by MTT assay.
Test [5] concerns HL-60. The test is described as follows: Cytotoxicity against human HL60 cells by MTT assay.
Test [6] relates to A-431. The test is described as follows: Cytotoxicity against human A431 cells by MTT assay.
For test [7], the system named is MKN-28. The test is described as follows: Cytotoxicity against human MKN28 cells by MTT assay.
The subject of test [8] is SMMC-7721. Put plainly: Cytotoxicity against human SMMC7721 cells by MTT assay.

Broadly, the IC50 is the midpoint of a concentration-inhibition curve. Low readings indicate greater potency in that assay, high ones weaker potency in that assay. Turning to `O=C(C[n+]1ccn(C23CC4CC(CC(C4)C2)C3)c1)c1ccccc1`, the half-inhibitory concentration (IC50) in test [1] is more than 200 µM; in test [2], 59.3 µM; in test [3], 93.4 µM; in test [4], 108 µM; in test [5], 39 µM; in test [6], 13.3 µM. For the same molecule, the IC50 in test [7] was 198 µM; in test [8], 108 µM.

On to `Cc1cc(C)c(-n2c[n+](CC(=O)c3ccc4ccccc4c3)c(C)c2C)c(C)c1`, for which the concentration for half-maximal inhibition (IC50) was 0.2 µM in test [1]; 3.7 µM in test [2]; 1.9 µM in test [3]; 4.3 µM in test [4]; 4.1 µM in test [5]; 3.9 µM in test [6]. Besides, the figures for the 50% inhibitory concentration (IC50) in test [7] and in test [8] were 1.7 µM and 9.8 µM, respectively.

Take `CC(=O)Cc1ccc(-n2cc[n+](CC(=O)c3ccccc3)c2)cc1`: the concentration for half-maximal inhibition (IC50) in test [1] is more than 200 µM; in test [2], more than 200 µM; in test [3], more than 200 µM; in test [4] it was 53.5 µM; in test [5], 25.8 µM; in test [6] it was 7 µM. For the same molecule, the IC50 is more than 200 µM in test [7] and 53.4 µM in test [8].

`Cc1cc(C)c(-n2cc[n+](CC(=O)c3ccc4c(c3)COC4)c2)c(C)c1`: the half-inhibitory concentration (IC50) in test [1] was 70.1 µM; in test [2] it was 31.5 µM; in test [3] it was 12.3 µM; in test [4], 23.5 µM; in test [5], 6.1 µM; in test [6], 18.2 µM. Besides, the IC50 came out at 85.3 µM in test [7] and 33.5 µM in test [8].

Consider `CC(C)c1cccc(C(C)C)c1-n1cc[n+](CC(=O)c2ccc3ccccc3c2)c1`, for which the IC50 in test [1] was found to be 0.4 µM; in test [2] it was 1.9 µM; in test [3], 3.5 µM; in test [4], 6.2 µM; in test [5] it was 1.5 µM; in test [6] it was 14.7 µM. For the same molecule, the 50% inhibitory concentration (IC50) in test [7] amounted to 9.6 µM; in test [8] it was 10.5 µM.

`O=C(C[n+]1ccn(C23CC4CC(CC(C4)C2)C3)c1)c1ccc2ccccc2c1`: the IC50 in test [1] came out at 3.4 µM; in test [2] it was 4 µM; in test [3], 0.8 µM; in test [4], 0.8 µM; in test [5], 4.2 µM; in test [6] it was 6.4 µM. For the same molecule, the IC50 turned out to be 12.8 µM in test [7] and 7.7 µM in test [8].

In the case of `COc1ccc(C(=O)C[n+]2ccn(-c3c(C)cc(C)cc3C)c2)cc1`, the concentration for half-maximal inhibition (IC50) in test [1] came to 2.4 µM; in test [2], 1.6 µM; in test [3] it was 1.5 µM; in test [4] it was 2.2 µM; in test [5] it was 3.1 µM; in test [6] it was 1.7 µM. Moreover, the concentration for half-maximal inhibition (IC50) in test [7] amounted to 5 µM; in test [8] it was 4.7 µM.

For the molecule `Cc1cc(C)c(-n2cc[n+](CC(=O)c3ccc(Br)cc3)c2)c(C)c1`, the IC50 in test [1] was found to be 21.4 µM; in test [2] it was 33.1 µM; in test [3], 22.1 µM; in test [4] it was 36.9 µM; in test [5] it was 13.4 µM; in test [6], 5.4 µM. The results for the half-inhibitory concentration (IC50) in test [7] and in test [8] were 76.6 µM and 23.8 µM, respectively.

For `COc1ccc(C(=O)C[n+]2ccn(-c3ccc([N+](=O)[O-])cc3)c2)cc1`, the concentration for half-maximal inhibition (IC50) stood at 113 µM in test [1]; 26.6 µM in test [2]; 41.6 µM in test [3]; 97.6 µM in test [4]; 8.6 µM in test [5]; 75.5 µM in test [6]. The half-maximal inhibitory concentration (IC50) in test [7] is 113 µM; in test [8], more than 200 µM.

Take `CC(C)c1cccc(C(C)C)c1-n1cc[n+](CC(=O)c2ccc3c(c2)COC3)c1`: the IC50 in test [1] was determined as 12.1 µM; in test [2], 25.5 µM; in test [3], 11.6 µM; in test [4], 36.9 µM; in test [5], 4.5 µM; in test [6] it was 5.1 µM. The half-inhibitory concentration (IC50) amounted to 59.6 µM in test [7] and 44.3 µM in test [8].

For the molecule `COc1ccc(C(=O)C[n+]2ccn(-c3c(C(C)C)cccc3C(C)C)c2)cc1`, the IC50 in test [1] worked out at 2.6 µM; in test [2] it was 5 µM; in test [3], 2.8 µM; in test [4] it was 5.1 µM; in test [5] it was 1.1 µM; in test [6], 4.2 µM. Also, the results for the IC50 in test [7] and in test [8] were 10 µM and 9.9 µM, respectively.

For `Cc1cc(C)c(-n2cc[n+](CC(=O)C(C)(C)C)c2)c(C)c1`, the IC50 in test [1] was more than 200 µM; in test [2], 192 µM; in test [3], 132 µM; in test [4], more than 200 µM; in test [5], 113 µM; in test [6] it was more than 200 µM. Moreover, the concentration for half-maximal inhibition (IC50) was more than 200 µM in test [7] and 154 µM in test [8].

With `COc1ccc(CCn2cc[n+](CC(=O)c3ccc4ccccc4c3)c2)cc1OC`, the IC50 in test [1] was found to be 169 µM; in test [2], 11 µM; in test [3], 77.2 µM; in test [4], 50.2 µM; in test [5], 54.2 µM; in test [6], 75 µM. Also, the results for the IC50 in test [7] and in test [8] were 85.4 µM and 34.4 µM, respectively.

As to `CC(C)c1cccc(C(C)C)c1-n1cc[n+](CC(=O)c2ccc(Br)cc2)c1`, the concentration for half-maximal inhibition (IC50) in test [1] came out at 2.8 µM; in test [2] it was 11.3 µM; in test [3], 9.2 µM; in test [4], 18.4 µM; in test [5] it was 3.8 µM; in test [6], 4.6 µM. The 50% inhibitory concentration (IC50) was determined as 35.3 µM in test [7] and 10.9 µM in test [8].

On to `Cc1cc(C)c(-n2cc[n+](CC(=O)c3ccc4ccccc4c3)c2)c(C)c1`, for which the half-inhibitory concentration (IC50) stood at 2.7 µM in test [1]; 2.1 µM in test [2]; 0.7 µM in test [3]; 0.4 µM in test [4]; 2.8 µM in test [5]; 4.4 µM in test [6]. For the same molecule, the IC50 was 8.7 µM in test [7] and 6.8 µM in test [8].

As to `Cc1cc(C)c(-n2cc[n+](CC(=O)c3ccccc3)c2)c(C)c1`, the half-inhibitory concentration (IC50) was more than 200 µM in test [1]; 29.9 µM in test [2]; 97.6 µM in test [3]; more than 200 µM in test [4]; 31.3 µM in test [5]; 15.6 µM in test [6]. Also, the 50% inhibitory concentration (IC50) in test [7] was more than 200 µM; in test [8], 16.8 µM.

As for `COc1ccc(C(=O)C[n+]2ccn(C(C)(C)C)c2)cc1`, the IC50 was more than 200 µM in test [1]; more than 200 µM in test [2]; 117 µM in test [3]; 179 µM in test [4]; more than 200 µM in test [5]; 66.2 µM in test [6]. Moreover, the IC50 in test [7] and in test [8] was more than 200 µM in each case.

For `CC(C)(C)n1cc[n+](CC(=O)c2ccccc2)c1`, the 50% inhibitory concentration (IC50) in test [1], in test [2], in test [3], in test [4], in test [5] and in test [6] was more than 200 µM in each case. Moreover, the IC50 in test [7] and in test [8] was more than 200 µM throughout.

For the molecule `COc1ccc(C(=O)C[n+]2ccn(CCc3ccc(OC)c(OC)c3)c2)cc1`, the IC50 in test [1] is more than 200 µM; in test [2] it was 37.4 µM; in test [3] it was 62.3 µM; in test [4], 33.4 µM; in test [5], 50.4 µM; in test [6], 188 µM. Besides, the IC50 in test [7] was more than 200 µM; in test [8] it was 62.3 µM.

On to `COc1ccc(C(=O)C[n+]2ccn(C34CC5CC(CC(C5)C3)C4)c2)cc1`, for which the IC50 is 1.5 µM in test [1]; 5.6 µM in test [2]; 7.1 µM in test [3]; 59.3 µM in test [4]; 14.7 µM in test [5]; 6.3 µM in test [6]. In addition, the IC50 in test [7] was found to be 158 µM; in test [8] it was 27.9 µM.

As for `COc1ccc(C(=O)C[n+]2ccn(-c3ccc(CC(C)=O)cc3)c2)cc1`, the 50% inhibitory concentration (IC50) was found to be 16.7 µM in test [1]; 61.1 µM in test [2]; 84.8 µM in test [3]; 26.5 µM in test [4]; 44.4 µM in test [5]; 14.5 µM in test [6]. Besides, the half-maximal inhibitory concentration (IC50) in test [7] was determined as 140 µM; in test [8] it was 91.6 µM.
